Assay type in all cases: in vivo
Data set [1] relates to barnyard grass (Echinochloa crus-galli Beauv.). The experiment in a line: Test Example 1: herbicidal effect on paddy field weeds before emergence. To be noted: Dosage 5 kg/ha. The method, then:
(§1) Test for Herbicidal Effect on Paddy Field Weeds Before Emergence Soil was filled into 1/10000 are pots and brought into a state of paddy field, in which seeds of barnyard grass (Echinochloa crus-galli Beauv.) and bulrush (Scirpus juncoides Roxb.) were made to be before germination. The soil in the pots were treated with a solution containing a predetermined dosage of a chemical agent comprising a compound of the present invention listed in Tables 1 to 14. Twenty one days after the treatment, the herbicidal effect was investigated, the result was compared with that in untreated plot to calculate the weed-controlling rate, and the herbicidal effect was judged according to the following criterion: […]

Data set [2] concerns bulrush (Scirpus juncoides Roxb.). Described as above. To be noted: Dosage 5 kg/ha. As to the method:
as §1

Data set [3] has as its system barnyard grass (Echinochloa crus-galli Beauv.). The experiment in a line: Test Example 2: herbicidal effect on paddy field weeds after emergence. To be noted: Dosage 5 kg/ha; one-leaved stage; 21 days after treatment. As to the method:
(§2) Test for Herbicidal Effect on Paddy Field Weeds After Emergence. Soil was filled into 1/10000 are pots and brought into a state of paddy field, in which seeds of barnyard grass (Echinochloa crus-galli Beauv.), bulrush (Scirpus juncoides Roxb.) and monochoria (Monochoria vaginalis Presl) were made to reach one-leaved stage. The soil in the pots were treated with a solution containing a predetermined dosage of a chemical agent comprising a compound of the present invention listed in Tables 1 to 14. Twenty one days after the treatment, the herbicidal effect was investigated and the result was compared with that in untreated plot to calculate the weed-controlling rate, and the herbicidal effect was judged according to the same criterion as in Test Example 1.

Data set [4] concerns bulrush (Scirpus juncoides Roxb.). The data set is described as above. To be noted: Dosage 5 kg/ha; one-leaved stage; 21 days after treatment. The method, then:
as §2

Data set [5] concerns monochoria (Monochoria vaginalis Presl). Described as above. To be noted: Dosage 5 kg/ha; one-leaved stage; 21 days after treatment. As to the method:
as §2

The test system of data set [6] is barnyard grass (Echinochloa crus-galli Beauv.), Ec. The experiment in a line: Test Example 3: herbicidal effect on upland weeds before emergence. The conditions noted are these: dosage 5 kg/ha. As to the method:
(§3) Herbicidal Effect on Upland Weeds Before Emergence […] Then, a liquid preparation of an agent comprising a prescribed concentration of a compound of the present invention (the compounds listed in Tables 1-14) as active ingredient was sprayed. Fourteen days after the treatment, the herbicidal effect was investigated, from which weed-killing rate was calculated in the same manner as in Test Example 1, and the herbicidal effect was judged.

Data set [7] relates to bird's eye speedwell (Veronica persica Poir.), Vp. The description is as above. The conditions noted are these: dosage 5 kg/ha. As to the method:
as §3

Data set [8] concerns cleavers (Galium aparine L.), Ga. The description is as above. To be noted: dosage 5 kg/ha. As to the method: as §3
In data set [9] the test system is cocklebur (Xanthium strumarium L.), Xs. The data set is described as above. The conditions noted are these: dosage 5 kg/ha. As to the method: as §3
Data set [10] concerns forxtail grass (Alopecurus aequalis var. amurensis Ohwi), Am. Described as above. The conditions noted are these: foxtail grass, dosage 5 kg/ha. The method, then: as §3
For data set [11], the system named is velvetleaf (Abutilon theophtasti L.), At. Described as above. To be noted: dosage 5 kg/ha. As to the method: as §3
In a further data set the test system is soybean plant (So). The experiment in a line: Test Example 3: phytotoxicity to upland crop plants, treatment before emergence. The conditions noted are these: dosage 5 kg/ha. As to the method:
(§4) Herbicidal Effect on Upland Weeds Before Emergence […] Then, a liquid preparation of an agent comprising a prescribed concentration of a compound of the present invention (the compounds listed in Tables 1-14) as active ingredient was sprayed. Fourteen days after the treatment, the herbicidal effect was investigated, from which weed-killing rate was calculated in the same manner as in Test Example 1, and the herbicidal effect was judged. At the same time, phytotoxicity to soybean plant and wheat was investigated and judged according to the criterion mentioned below.

The next data set relates to wheat (Wh). Described as above. To be noted: dosage 5 kg/ha. The method, then:
as §4

Data set [12] relates to barnyard grass (Echinochloa crus-galli Beauv.), Ec. The experiment in a line: Test Example 4: herbicidal effect on upland weeds after emergence. The conditions noted are these: dosage 5 kg/ha; sprayed after emergence; judged 14 days after treatment. The text has this: (§5) Herbicidal Effect on Upland Weeds After Emergence Polyethylene-made vats having a size of 10 cm (length)×20 cm (width)×5 cm (height) were filled with soil, sown with seeds of the following noxious upland weeds and with seeds of soybean plant and wheat as upland crop plants, and then covered with soil. The plants were made to grow up until they reached the leaf-stages mentioned below, after which an agent comprising a prescribed concentration of a compound of the present invention (listed in Tables 1 to 14) as active ingredient was sprayed. Fourteen days after the treatment, the herbicidal effect was investigated, from which weed-killing rate was calculated in the same manner as in Test Example 1 and the results were judged. […] Sample weeds, their leaf stages, and leaf stages of soybean plant and wheat were as follows: [table]

The test system of data set [13] is bird's eye speedwell (Veronica persica Poir.), Vp. The description is as above. To be noted: dosage 5 kg/ha; sprayed after emergence; judged 14 days after treatment.
Description: as §5

Data set [14] relates to cleavers (Galium aparine L.), Ga. The description is as above. To be noted: dosage 5 kg/ha; sprayed after emergence; judged 14 days after treatment.
Description: as §5

Data set [15] concerns cocklebur (Xanthium strumarium L.), Xs. The description is as above. To be noted: dosage 5 kg/ha; sprayed after emergence; judged 14 days after treatment.
Description: as §5

The test system of data set [16] is forxtail grass (Alopecurus aequalis var. amurensis Ohwi), Am. Described as above. To be noted: dosage 5 kg/ha; sprayed after emergence; judged 14 days after treatment.
Description: as §5

Data set [17] deals with velvetleaf (Abutilon theophtasti L.), At. Described as above. The conditions noted are these: dosage 5 kg/ha; sprayed after emergence; judged 14 days after treatment.
Description: as §5

Another data set has as its system soybean plant. The experiment in a line: Test Example 4: phytotoxicity to upland crop plants, treatment after emergence. The conditions noted are these: dosage 5 kg/ha, sprayed after emergence, judged 14 days after treatment.
Description: as §5

In another data set the test system is wheat. The description is as above. To be noted: dosage 5 kg/ha, sprayed after emergence, judged 14 days after treatment.
Description: as §5

`CCCNC(=O)c1nc2cscc2cc1C(=O)Nc1c(CC)ccc(Cl)c1CC` [compound 836]: the “Pre-emergence treatment Barnyard grass (herbicidal effect)” value (“Pre-emergence treatment Barnyard grass” below) in data set [1] is 5 (Weed-killing rate is 100%.). For the same compound, in data set [2], the “Pre-emergence treatment Bulrush (herbicidal effect)” value (“Pre-emergence treatment Bulrush” for short) was 5 (Weed-killing rate is 100%.). Moreover, in data set [3], the “Post-emergence treatment Barnyard grass (herbicidal effect)” value (shortened to “Post-emergence treatment Barnyard grass”) is reported as 5 (Weed-killing rate is 100%.). Also, the “Post-emergence treatment Bulrush (herbicidal effect)” value (“Post-emergence treatment Bulrush” below) in [4] is listed as 5 (Weed-killing rate is 100%.). In data set [5], the “Post-emergence treatment Monochoria (herbicidal effect)” value (shortened to “Post-emergence treatment Monochoria”) is given as 5 (Weed-killing rate is 100%.). Besides, the “Herbicidal effect Ec” value in data set [6] and in [12] was 5 (Weed-killing rate is 100%.) throughout. Besides, the “Herbicidal effect Vp” value in data set [7] and in [13] was 5 (Weed-killing rate is 100%.) throughout. Besides, the “Herbicidal effect Ga” value in data set [8] and in data set [14] was 5 (Weed-killing rate is 100%.) throughout. Besides, the “Herbicidal effect Xs” value in data set [9] and in data set [15] was 5 (Weed-killing rate is 100%.) each time. The “Herbicidal effect Am” value in [10] and in data set [16] was 5 (Weed-killing rate is 100%.) each time. In addition, the “Herbicidal effect At” value in [11] and in data set [17] was 5 (Weed-killing rate is 100%.) throughout. Besides, the “Phytotoxicity So” value in the data set on soybean plant (So) and with soybean plant was 4 (Crop-killing rate is 90-99%.) in each case. For the same compound, the “Phytotoxicity Wh” value in the data set on wheat (Wh) and in the data set on wheat was 5 (Crop-killing rate is 100%.) each time.
Regarding `CCCNC(=O)c1nc2c(cc1C(=O)Nc1cccc(Cl)c1C)OCCC2` [compound 498], the “Pre-emergence treatment Barnyard grass” value in [1] is listed as 5 (Weed-killing rate is 100%.). In addition, the “Pre-emergence treatment Bulrush” value in data set [2] was 5 (Weed-killing rate is 100%.). The “Post-emergence treatment Barnyard grass” value in data set [3] is reported as 5 (Weed-killing rate is 100%.). Besides, the “Post-emergence treatment Bulrush” value in data set [4] is on record as 5 (Weed-killing rate is 100%.). For the same compound, the “Post-emergence treatment Monochoria” value in data set [5] is 5 (Weed-killing rate is 100%.). In addition, the “Herbicidal effect Ec” value in data set [6] and in data set [12] was 5 (Weed-killing rate is 100%.) throughout. Further, the “Herbicidal effect Vp” value in data set [7] and in data set [13] was 5 (Weed-killing rate is 100%.) each time. For the same compound, the “Herbicidal effect Ga” value in data set [8] and in data set [14] was 4 (Weed-killing rate is 90-99%.) each time. Also, the “Herbicidal effect Xs” value in data set [9] and in data set [15] was 4 (Weed-killing rate is 90-99%.) each time. The “Herbicidal effect Am” value in data set [10] and in data set [16] was 5 (Weed-killing rate is 100%.) throughout. Moreover, the “Herbicidal effect At” value in [11] and in data set [17] was 5 (Weed-killing rate is 100%.) throughout. Further, the “Phytotoxicity So” value with soybean plant (So) and in the data set with soybean plant was 4 (Crop-killing rate is 90-99%.) in each case. The “Phytotoxicity Wh” value with wheat (Wh) and with wheat was 4 (Crop-killing rate is 90-99%.) each time.
Regarding `CCCNC(=O)c1nc2ncn(C)c2cc1C(=O)Nc1c(CC)ccc(Cl)c1CC` [compound 1209], the “Pre-emergence treatment Barnyard grass” value in data set [1] is 5 (Weed-killing rate is 100%.). In addition, the “Pre-emergence treatment Bulrush” value in data set [2] was 5 (Weed-killing rate is 100%.). Further, the “Post-emergence treatment Barnyard grass” value in data set [3] is reported as 5 (Weed-killing rate is 100%.). In addition, in data set [4], the “Post-emergence treatment Bulrush” value is on record as 5 (Weed-killing rate is 100%.). The “Post-emergence treatment Monochoria” value in data set [5] is on record as 5 (Weed-killing rate is 100%.). The “Herbicidal effect Ec” value in [6] and in data set [12] was 5 (Weed-killing rate is 100%.) in each case. Besides, the “Herbicidal effect Vp” value in [7] and in data set [13] was 5 (Weed-killing rate is 100%.) throughout. Also, the “Herbicidal effect Ga” value in [8] and in data set [14] was 5 (Weed-killing rate is 100%.) in each case. For the same compound, the “Herbicidal effect Xs” value in data set [9] and in data set [15] was 5 (Weed-killing rate is 100%.) each time. Also, the “Herbicidal effect Am” value in data set [10] and in [16] was 5 (Weed-killing rate is 100%.) each time. Further, the “Herbicidal effect At” value in [11] and in data set [17] was 5 (Weed-killing rate is 100%.) in each case. For the same compound, the “Phytotoxicity So” value in the data set with soybean plant (So) and with soybean plant was 5 (Crop-killing rate is 100%.) in each case. The “Phytotoxicity Wh” value with wheat (Wh) and with wheat was 5 (Crop-killing rate is 100%.) throughout.
Regarding `CCNC(=O)c1nc2occc2cc1C(=O)Nc1c(CC)ccc(Cl)c1CC` [compound 774], the “Pre-emergence treatment Barnyard grass” value in data set [1] is given as 5 (Weed-killing rate is 100%.). Also, in data set [2], the “Pre-emergence treatment Bulrush” value is 5 (Weed-killing rate is 100%.). The “Post-emergence treatment Barnyard grass” value in data set [3] is recorded as 5 (Weed-killing rate is 100%.). Further, in [4], the “Post-emergence treatment Bulrush” value was 5 (Weed-killing rate is 100%.). In addition, the “Post-emergence treatment Monochoria” value in [5] is 5 (Weed-killing rate is 100%.). The “Herbicidal effect Ec” value in [6] and in data set [12] was 5 (Weed-killing rate is 100%.) in each case. The “Herbicidal effect Vp” value in data set [7] and in data set [13] was 5 (Weed-killing rate is 100%.) each time. In addition, the “Herbicidal effect Ga” value in [8] and in [14] was 5 (Weed-killing rate is 100%.) in each case. Also, the “Herbicidal effect Xs” value in data set [9] and in data set [15] was 5 (Weed-killing rate is 100%.) each time. The “Herbicidal effect Am” value in data set [10] and in data set [16] was 5 (Weed-killing rate is 100%.) in each case. The “Herbicidal effect At” value in data set [11] and in data set [17] was 5 (Weed-killing rate is 100%.) in each case. The “Phytotoxicity So” value with soybean plant (So) and with soybean plant was 4 (Crop-killing rate is 90-99%.) in each case. Moreover, the “Phytotoxicity Wh” value with wheat (Wh) and in the data set with wheat was 5 (Crop-killing rate is 100%.) each time.
